Patent US9656984B2, “PI3K/AKT/mTOR inhibitors and pharmaceutical uses thereof” (UNIVERSITE DE RENNES 1, priority 2013, dated 2017)

Key:
[1] = system: MCF-7 (ER-positive) breast tumor cell line; assay: Cell death by MTT assay, MCF-7; format: cell-based, human; conditions: 24 hours, mean of four experiments
Experimental: (§1) The ER-positive breast tumor cell lines MCF-7 and T47-D and the HER2 positive breast tumor cell lines MDA-MB-453 and BT474 (also ER-positive) were incubated with the indicated concentration of each mentioned compound of formula (I) for 24 hours and then cell death was assessed using MTT assay.
(§2) For each cell line, the percentage of cell death (mean of four experiments for cell lines MCF-7 and T47-D, and two experiments for cell lines MDA-MB-453 and BT474) is given in view of the increasing concentration of each tested compound of the invention.
(§3) Cell viability was assessed using the 3-[4,5-dimethylthiazol-2-yl]-2,5-diphenyltetrazolium bromide (MTT) viability assay (1). In brief, cells (4×10^4 per well) were cultured for 20 h in flat-bottomed 96 well plates with various concentrations of the apoptosis inducer. Then 0.015 ml of MTT (5 mg/ml in PBS) was added to each well and incubated for 4 h at 37° C. Formazan salt precipitats were dissolved by adding 0.115 ml of isopropyl alcohol containing 1% formic acid (v/v), and the absorbance was measured at 570 nm.

[2] = system: MDA-MB-453 (HER2 positive) breast tumor cell line; assay: Cell death by MTT assay, MDA-MB-453; format: cell-based, human; conditions: 24 hours, mean of two experiments
Experimental: as §1, §2, §3

AKT phosphorylation = assay: In cellulo IC50 of AKT phosphorylation in CEM cells (Western blot densitometry); format: cell-based; conditions: Homo sapiens, CCRF-CEM, 2 hours incubation, AKT phosphorylation vs whole AKT, read-out: In vivo IC50
Experimental: CEM cells were incubated for 2 hours with the indicated concentrations of each mentioned compound of formula (I). Cells were then lysed and 100 μg of protein was loaded per line in an SDS-PAGE. Bands from AKT phosphorylation and whole AKT observed by Western blot were scanned and quantified by densitometric analysis. Based on these values, an in cellulo IC50 (half maximal inhibitory concentration) was measured for each compound of formula (I).
(§4) Immunoblots Excepted for immunoprecipitation experiments in which cells were lyzed with RIPA buffer, cells were lyzed for 30 min at 4° C. in Lysis buffer (25 mM HEPES pH 7.4, 1% v/v Triton X-100, 150 mM NaCl, 2 mM EGTA supplemented with a mix of protease inhibitors). Protein concentration was determined by the bicinchoninic acid method (Pierce, Rockford, Ill., USA) according to the manufacturer's protocol. Proteins were resolved by 8, 10 or 12% SDS-PAGE and transferred to a nitrocellulose membrane (GE Healthcare, Buckinghamshire, UK). The membrane was blocked 15 min with TBST (50 mM Tris, 160 mM NaCl, 0.05% v/v Tween 20, pH 7.4) containing 5% w/v dried skimmed milk (TBS™). Primary antibody was incubated overnight at 4° C. in TBS™. The membrane was intensively washed (TBST) and then the peroxydase-labeled anti-mouse IgG1 or IgG2a (CliniSciences, Nanterre, France) was added for 45 min. Proteins were visualized with the enhanced chemiluminescence substrate kit (ECL RevelBIOt®, Ozyme, Saint Quentin en Yvelines, France).

[3] = system: PI3K/AKT activity (AKT phosphorylation); assay: PI3K/AKT/mTOR pathway inhibitory activity: level of AKT phosphorylation in CEM cells over time; format: cell-based, human; conditions: 10 μM, FIGS. 7 and 8
Experimental: The CEM cell was incubated with 10 μM of each mentioned compound of formula (I) for the indicated times and then cells were lysed and 100 μg of protein was loaded per line and resolved by SDS-PAGE. The levels of AKT phosphorylation (hallmark of PI3K activation) and total AKT (loading control) were analyzed by Western blot and the amount of AKT phosphorylation relative to the total amount of protein AKT was quantified by densitometric analysis, the intensity of each band was scanned and the level of AKT phosphorylation was reported to the amount of whole AKT and the percentage of phosphorylated-AKT was depicted.
as §4

[4] = system: T47-D (ER-positive) breast tumor cell line; assay: Cell death by MTT assay, T47-D; format: cell-based, human; conditions: 24 hours, mean of four experiments
Experimental: as §1, §2, §3

[5] = system: BT474 (ER-positive/HER2-positive) breast tumor cell line; assay: Cell death by MTT assay, BT474; format: cell-based, human; conditions: 24 hours, mean of two experiments
Experimental: as §1, §2, §3

SMILES	percentage of cell death ([2]; MDA-MB-453, 0.390625 μM) [%]	percentage of cell death ([2]; MDA-MB-453, 0.78125 μM) [%]	percentage of cell death ([2]; MDA-MB-453, 1.5625 μM) [%]	percentage of cell death ([2]; MDA-MB-453, 3.125 μM) [%]	percentage of cell death ([2]; MDA-MB-453, 6.25 μM) [%]	percentage of cell death ([2]; MDA-MB-453, 12.5 μM) [%]	percentage of cell death ([2]; MDA-MB-453, 25 μM) [%]	percentage of cell death ([2]; MDA-MB-453, 50 μM) [%]	IC50 (AKT phosphorylation) [nM]	inhibitory activity on PI3K/AKT (level of AKT phosphorylation) [3]	melting point [°C]	also measured
O=[N+]([O-])C1=Cc2cccc(Br)c2OC1c1ccc(Cl)cc1 (stereo not shown) [Compound 19, 8-bromo-2-(4-chloro-phenyl)-3-nitro-2H-chromene]	0	0	0	24.69	53.93	91.89	98.05	101.13	> 10000	very strong inhibitors		percentage of cell death ([1]; MCF-7, 6.25 μM): 0%; percentage of cell death ([1]; MCF-7, 12.5 μM): 25.75%; percentage of cell death ([1]; MCF-7, 25 μM): 52.14%; percentage of cell death ([1]; MCF-7, 50 μM): 84.65%
CCOc1cccc2c1OC(c1ccc(Cl)cc1)C([N+](=O)[O-])=C2 (stereo not shown) [Compound 14, 2-(4-chloro-phenyl)-8-ethoxy-3-nitro-2H-chromene]									10000	very strong inhibitors		
O=C(O)C1=Cc2cc(Br)cc(Br)c2OC1c1ccc(Br)cc1 (stereo not shown) [Compound 54, 6,8-dibromo-2(4-bromophenyl)-2H-chromene-3-carboxylic acid]											256 to 258	
O=[N+]([O-])C1=Cc2cccc(Br)c2OC1c1ccc(Br)cc1 (stereo not shown) [Compound 18, 8-bromo-2-(4-bromo-phenyl)-3-nitro-2H-chromene]	3.17	3.17	0	0	45.963	81.73	93.72	100	1500	very strong inhibitors		percentage of cell death ([4]; 6.25 μM): 0%; percentage of cell death ([4]; 12.5 μM): 0%; percentage of cell death ([4]; 25 μM): 23.71%; percentage of cell death ([4]; 50 μM): 78.28%
O=CC1=Cc2cc(Br)ccc2OC1c1ccc(Br)cc1 (stereo not shown) [Compound 44, 6-Bromo-2-(4-bromophenyl)-2H-chromene-3-carbaldehyde]											144 to 146	
O=[N+]([O-])C1=Cc2cc(Br)ccc2OC1c1ccc(Cl)cc1 (stereo not shown) [Compound 10, 6-bromo-2-(4-chloro-phenyl)-3-nitro-2H-chromene]	6.6	7.8	5.06	70.42	76.17	93.07	98.46	99.07	2000	very strong inhibitors		percentage of cell death ([1]; MCF-7, 6.25 μM): 0%; percentage of cell death ([1]; MCF-7, 12.5 μM): 24.06%; percentage of cell death ([1]; MCF-7, 25 μM): 49.08%; percentage of cell death ([1]; MCF-7, 50 μM): 81.85%; percentage of cell death ([5]; BT474, 6.25 μM): 0%; percentage of cell death ([5]; BT474, 12.5 μM): 40.42%; percentage of cell death ([5]; BT474, 25 μM): 69.52%; percentage of cell death ([5]; BT474, 50 μM): 93.84%; percentage of cell death ([4]; 6.25 μM): 4.62%; percentage of cell death ([4]; 12.5 μM): 87.84%; percentage of cell death ([4]; 25 μM): 91.71%; percentage of cell death ([4]; 50 μM): 92.93%
ON=CC1=Cc2cc(Br)ccc2OC1c1ccc(Br)cc1 (stereo not shown) [Compound 59, 6-Bromo-2-(4-bromophenyl)-2H-chromene-3-carbaldehyde oxime]											158 to 160	
O=C(O)C1=Cc2cc(Br)ccc2OC1c1ccc(Br)cc1 (stereo not shown) [Compound 53, 6-bromo-2-(4-bromophenyl)-2H-chromene-3-carboxylic acid]											208 to 210	
O=[N+]([O-])C1Cc2cc(Br)ccc2OC1c1ccc(F)cc1 (stereo not shown) [Compound 7, 6-bromo-2-(4-fluorophenyl)-3-nitro-3,4-dihydro-2H-chromene]	1.13	0	13.84	52.93	65.61	97.05	102.46	100.25				percentage of cell death ([1]; MCF-7, 6.25 μM): 10.88%; percentage of cell death ([1]; MCF-7, 12.5 μM): 38.7%; percentage of cell death ([1]; MCF-7, 25 μM): 79.7%; percentage of cell death ([1]; MCF-7, 50 μM): 95.55%; percentage of cell death ([5]; BT474, 6.25 μM): 44.85%; percentage of cell death ([5]; BT474, 12.5 μM): 55.3%; percentage of cell death ([5]; BT474, 25 μM): 91.87%; percentage of cell death ([5]; BT474, 50 μM): 96.07%; percentage of cell death ([4]; 6.25 μM): 34.43%; percentage of cell death ([4]; 12.5 μM): 85.1%; percentage of cell death ([4]; 25 μM): 92.07%; percentage of cell death ([4]; 50 μM): 88.3%
CCOc1cccc2c1OC(c1ccc(Br)cc1)C([N+](=O)[O-])=C2 (stereo not shown) [Compound 13, 2-(4-bromo-phenyl)-8-ethoxy-3-nitro-2H-chromene]									8000	very strong inhibitors		
O=[N+]([O-])C1=Cc2cc(Br)ccc2OC1c1ccc(Br)cc1 (stereo not shown) [Compound 9, 6-bromo-2-(4-bromo-phenyl)-3-nitro-2H-chromene]	1.52	7.56	4.67	53.8	71.22	87.47	97.49	98.67	400	very strong inhibitors		percentage of cell death ([1]; MCF-7, 6.25 μM): 0%; percentage of cell death ([1]; MCF-7, 12.5 μM): 32.14%; percentage of cell death ([1]; MCF-7, 25 μM): 52.18%; percentage of cell death ([1]; MCF-7, 50 μM): 80.16%; percentage of cell death ([5]; BT474, 6.25 μM): 25.95%; percentage of cell death ([5]; BT474, 12.5 μM): 71.4%; percentage of cell death ([5]; BT474, 25 μM): 88.01%; percentage of cell death ([5]; BT474, 50 μM): 93.62%; percentage of cell death ([4]; 6.25 μM): 20.53%; percentage of cell death ([4]; 12.5 μM): 92.97%; percentage of cell death ([4]; 25 μM): 91.2%; percentage of cell death ([4]; 50 μM): 93.62%
COC(=O)C1=Cc2cc(Br)ccc2OC1c1ccc(Br)cc1 (stereo not shown) [Compound 55, Methyl-6-Bromo-2-(4-bromophenyl)-2H-chromene-3-carboxylate]											118 to 120	
N#CC1=Cc2cc(Br)ccc2OC1c1ccc(Br)cc1 (stereo not shown) [Compound 61, 6-Bromo-2-(4-bromophenyl)-2H-chromene-3-carbonitrile]											136 to 138	
N#CC1=Cc2cc(Br)cc(Br)c2OC1c1ccc(Br)cc1 (stereo not shown) [Compound 62, 6,8-Dibromo-2-(4-bromophenyl)-2H-chromene-3-carbonitrile]											196 to 198	
